In patent US8846675B2, “N-linked heterocyclic receptor agonists for the treatment of diabetes and metabolic disorders” (Cymabay Therapeutics, Inc., priority 2007, dated 2014):

Target: T1, IC-GPCR2 (Homo sapiens, UniProt Q8TDV5)
T1 construct: expressed in transfected cells
T1 sequence (Q8TDV5 1-335 S309L): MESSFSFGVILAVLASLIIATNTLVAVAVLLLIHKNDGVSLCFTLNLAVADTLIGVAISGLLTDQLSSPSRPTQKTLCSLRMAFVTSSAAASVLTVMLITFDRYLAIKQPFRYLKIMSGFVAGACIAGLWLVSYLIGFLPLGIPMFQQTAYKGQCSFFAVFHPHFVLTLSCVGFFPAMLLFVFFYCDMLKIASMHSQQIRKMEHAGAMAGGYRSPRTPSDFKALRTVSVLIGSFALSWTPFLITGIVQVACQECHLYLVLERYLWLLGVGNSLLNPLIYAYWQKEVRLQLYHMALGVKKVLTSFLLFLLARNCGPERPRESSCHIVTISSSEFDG
Test: Stimulation of cAMP in CHO cell line stably expressing IC-GPCR2 (HTRF cAMP dynamic kit)
Type: cell-based
Settings: 3 μM compound; relative to maximal activity of 5-Ethyl-2-{4-[4-(4-tetrazol-1-yl-phenoxymethyl)-thiazol-2-yl]-piperidin-1-yl}-pyrimidine (=100%); IC-GPCR2 stably expressing CHO cells, 30 minutes
In short: (§1)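 CHO cells stably expressing IC-GPCR2, with parental CHO as counter-screen, were exposed to compound (0.00003–10 μM) for 30 min in Ham's F12. Intracellular cAMP read by HTRF competitive immunoassay (665/620 nm ratio). Activity at 3 μM expressed as % of maximal signal from a reference agonist.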

Row | Compound | % activity at 3 μM
1 | CCc1cnc(N2CCC(n3ccc(COc4ccc(-n5cnnn5)cc4F)n3)CC2)nc1 [Example 113, 5-Ethyl-2-(4-(3-((2-fluoro-4-(1H-tetrazol-1-yl)phenoxy)methyl)-1H-pyrazol-1-yl)piperidin-1-yl)pyrimidine] | 57.71%

Target: T2, IC-GPCR2 (Homo sapiens, UniProt Q8TDV5, S309L)
T2 construct: expressed in transfected cells
T2 sequence (Q8TDV5 1-335 S309L): T1 sequence (Q8TDV5 1-335 S309L)
Test: as above
Type: cell-based
Settings: 3 μM compound; IC-GPCR2 stably expressing CHO cells; not included in Table 1
In short: as §1

Row | Compound | activity when tested at 3 μM (in words)
2 | Cc1nc(C)c(S(=O)(=O)N2CCC(n3ncc(COc4ccc(-n5cnnn5)nc4)n3)CC2)s1 [Example 39, 5-(4-(4-((6-(1H-Tetrazol-1-yl)pyridin-3-yloxy)methyl)-2H-1,2,3-triazol-2-yl)piperidin-1-ylsulfonyl)-2,4-dimethylthiazole] | did not exhibit activity
3 | Cn1cnc(S(=O)(=O)N2CCC(n3ncc(COc4ccc(-n5cnnn5)nc4)n3)CC2)c1 [Example 42, 5-((2-(1-(1-Methyl-1H-imidazol-4-ylsulfonyl)piperidin-4-yl)-2H-1,2,3-triazol-4-yl)methoxy)-2-(1H-tetrazol-1-yl)pyridine] | did not exhibit activity
4 | Cc1noc(C)c1S(=O)(=O)N1CCC(n2ncc(COc3ccc(-n4cnnn4)nc3)n2)CC1 [Example 43, 4-(4-(4-((6-(1H-Tetrazol-1-yl)pyridin-3-yloxy)methyl)-2H-1,2,3-triazol-2-yl)piperidin-1-ylsulfonyl)-3,5-dimethylisoxazole] | did not exhibit activity
5 | C[C@H](NC(=O)OC(C)(C)C)C(=O)N1CCC(n2ncc(COc3ccc(-n4cnnn4)nc3)n2)CC1 [Example 53, (S)-tert-Butyl 1-(4-(4-((6-(1H-tetrazol-1-yl)pyridin-3-yloxy)methyl)-2H-1,2,3-triazol-2-yl)piperidin-1-yl)-1-oxopropan-2-ylcarbamate] | did not exhibit activity
6 | COC(=O)c1cc(C)nc(N2CCC(n3ncc(COc4ccc(-n5cnnn5)nc4)n3)CC2)n1 [Example 79, Methyl 2-(4-(4-((6-(1H-tetrazol-1-yl)pyridin-3-yloxy)methyl)-2H-1,2,3-triazol-2-yl)piperidin-1-yl)-6-methylpyrimidine-4-carboxylate] | did not exhibit activity
7 | Cn1nc(OCc2cnn(C3CCN(c4ncc(Cl)cn4)CC3)n2)cc1C(F)(F)F [Example 97, 5-Chloro-2-{4-[4-(1-methyl-5-trifluoromethyl-1H-pyrazol-3-yloxymethyl)-[1,2,3]-triazol-2-yl]-piperidin-1-yl}-pyrimidine] | did not exhibit activity
